According to PMC8113459, “Selective inhibition of cullin 3 neddylation through covalent targeting DCN1 protects mice from acetaminophen-induced liver toxicity” (Nature Communications, 2021):
Values joined by “and” are separate entries in the source; they are usually repeats but may differ in a detail not shown here. Equal values may be shown once.

How the values were obtained:
[1] = Cell viability assay (WST-8), KYSE70; format: cell-based, human; conditions: human, KYSE70 cells, replicates, read-out: cell viability relative to control
Description: (§1) Cell viability assay was performed as previously described. The effect of DCN1 inhibitors on cell growth was evaluated by a WST-8 [2-(2-methoxy-4-nitrophenyl)-3-(4-nitrophenyl)-5-(2,4-disulfophenyl)-2H-tetrazolium, monosodium salt assay (Dojindo Molecular Technologies, Inc). Cells (2000–3000 cells in each well) were seeded in 96-well tissue culture plates in medium (100 μL) and treated with serial dilution of DCN1 inhibitors for 3 days. At the end of incubation, WST-8 dye (20 μL) was added to each well and incubated for 1–3 h, then the absorbance was measured in a microplate reader (Molecular Devices) at 450 nm. Cell growth inhibition was evaluated as the ratio of the absorbance of the sample to that of the control. The values were inserted into Prism software, and the curves and the EC50 values were produced by Prism software.

KYSE70 cells = assay: Cell viability assay (WST-8), KYSE70; format: cell-based, human; conditions: for cell viability relative to control: replicates
Description: as §1

NRF2 protein = assay: Western blot, NRF2 protein accumulation in cells; format: cell-based, human; conditions: 300 nM
Description: (§2) Western blotting was performed as described previously. Treated cells were lysed by RIPA buffer supplemented with protease inhibitor. The expression level of indicated proteins was examined by immunoblotting analysis and GAPDH was used as the loading control. Antibodies were purchased commercially: cullin 1 (sc-17775, 1:500 dilution) and cullin 2 (sc-166506, 1:500 dilution) from Santa Cruz Biotech (Santa Cruz, CA); cullin 4A (PA5-14542, 1:1000 dilution), cullin 4B (PA5-50647, 1:1000 dilution), and DCN3 (DCUN1D3, PA5-44000, 1:1000 dilution) from Thermo Fisher Scientific (Wayne, MI); cullin 3 (2759, 1:1000), NRF2 (12721, 1:1000 dilution), HO-1 (70081, 1:1000 dilution), and Bim (2819, 1:1000 dilution) from Cell Signaling Technology (Boston, MA); DCN1 (GWB-E3D700, 1:1000 dilution) from GenWay Biotech (San Diego, CA); and cullin 5 (A302-173A, 1:500 dilution) from Bethyl Labs (Montgomery, TX). Results are representative of two independent experiments.

DCN1 [2] = target: T1, DCN1 (Homo sapiens, UniProt Q96GG9); assay: Competitive FP binding assay
Description: Competitive FP binding assay was performed as previously described. The IC50 and Ki values of DI-1548 and DI-1548DD were determined in competitive binding experiments. Mixtures of preincubated protein/probe complex solution in the assay buffer (196 μL) and compounds in DMSO (4 μL) were added into assay plates which were incubated at room temperature for 30 min with gentle shaking. The concentrations of DCN1 protein and fluorescent probe were 50 and 5 nM, respectively. […] FP values in millipolarization units were measured using the Infinite M-1000 plate reader (Tecan U.S., Research Triangle Park, NC) in Microfluor 1 96-well, black, round-bottom plates (Thermo Fisher Scientific, Waltham, MA) at an excitation wavelength of 485 nm and an emission wavelength of 530 nm. IC50 values were determined by nonlinear regression fitting of the competition curves using the dose–response inhibition equation (four parameters, variable slopes) included in the Prism/GraphPad software. Ki values were calculated using methods described previously.
Target sequence in this assay (Q96GG9 whole entry): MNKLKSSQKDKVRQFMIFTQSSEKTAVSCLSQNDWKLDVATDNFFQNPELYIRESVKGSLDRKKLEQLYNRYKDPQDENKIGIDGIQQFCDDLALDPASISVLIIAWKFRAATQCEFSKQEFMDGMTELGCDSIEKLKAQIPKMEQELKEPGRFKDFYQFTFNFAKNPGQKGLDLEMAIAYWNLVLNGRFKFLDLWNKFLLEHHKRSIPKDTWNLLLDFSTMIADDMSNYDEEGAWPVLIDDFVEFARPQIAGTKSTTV

DCN1 [3] = target: T1, DCN1; assay: Intact-protein mass spectrometric analysis, Method B (DCN1); format: binding; conditions: 3 h incubation, 100 nM protein
Description: Method B: Recombinant DCN1 or DCN3 protein (100 nM in 25 mM Tris 7.5, 200 mM NaCl, 1 mM DTT buffer) was incubated with 1.2-fold excess of the DCN1 inhibitors at 37 °C for 10 min, 1 h, or 3 h. Following incubation, the protein was analyzed by LC–MS (Agilent Q-TOF 6545) under the following conditions: fragmentor voltage, 300 V; skimmer voltage, 75 V; nozzle voltage, 100 V; sheath gas temperature, 350 °C; and drying gas temperature, 325 °C. MassHunter Qualitative Analysis software (Agilent) was used to analyze the data. Intact protein masses were obtained using the maximum entropy deconvolution algorithm. The mass spectrometry data in Supplementary Figs. 14–17 were generated by Method B.
Target sequence in this assay (Q96GG9 whole entry): as above

[4] = Cell viability assay (WST-8), MDA-MB-231; format: cell-based, human; conditions: human, MDA-MB-231 cells, replicates, read-out: cell viability relative to control
Description: as §1

MDA-MB-231 cells = assay: Cell viability assay (WST-8), MDA-MB-231; format: cell-based, human; conditions: for cell viability relative to control: replicates
Description: as §1

[5] = Cell viability assay (WST-8), HCT116; format: cell-based, human; conditions: human, HCT116 cells, replicates, read-out: cell viability relative to control
Description: as §1

HCT116 cells = assay: Cell viability assay (WST-8), HCT116; format: cell-based, human; conditions: for cell viability relative to control: replicates
Description: as §1

U2OS cells = assay: Cell viability assay (WST-8), U2OS; format: cell-based, human; conditions: replicates
Description: as §1

[6] = Cell viability assay (WST-8), U2OS; format: cell-based, human; conditions: human, U2OS cells, replicates, read-out: cell viability relative to control
Description: as §1

neddylation of cullin 3 = assay: Western blot, cullin 3 neddylation in cells of different tissue types (U2OS, THLE2, MDA-MB-231, KYSE70, HCT116); format: cell-based, human
Description: as §2

Solubility = format: physicochemical
DCN1 [7] = target: T1, DCN1; assay: Intact-protein mass spectrometric analysis of covalent complex formation, Method A; format: binding; conditions: for Percentage of the formation of covalent complex with DCN1 protein: 37 °C
Source text: MassHunter Qualitative Analysis software (Agilent) was used to analyze the data. Intact protein masses were obtained using the maximum entropy deconvolution algorithm. The mass spectrometry data in Supplementary Figs. 1–11 were generated by Method A.
Target sequence in this assay (Q96GG9 58-259 limits assumed): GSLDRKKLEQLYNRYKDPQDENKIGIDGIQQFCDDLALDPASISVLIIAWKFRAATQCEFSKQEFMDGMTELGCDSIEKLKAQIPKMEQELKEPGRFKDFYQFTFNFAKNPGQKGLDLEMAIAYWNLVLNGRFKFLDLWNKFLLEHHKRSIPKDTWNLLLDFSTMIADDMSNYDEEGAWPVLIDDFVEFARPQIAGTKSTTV

## C=C(CN1CCOCC1)C(=O)NC[C@H](NC(=O)[C@@H](Cc1nc2ccc(C(C)C)cc2s1)NC(=O)CC)C1CCCCC1 [DI-1548DD]
[1]; conc 10, 72 h
  viability at 72 h: 98.7%
[1]; conc 300, 72 h
  viability at 72 h: 88%
KYSE70 cells; Homo sapiens, KYSE-70, 72 h, cell line assigned from panel order, read-out: EC50, cell growth inhibition
  EC50: > 1000 nM
KYSE70 cells; conc 10, 72 h
  cell viability relative to control: 101.942 and 101.216
KYSE70 cells; conc 30, 72 h
  cell viability relative to control: 111.396 and 109.174 and 90.4505
KYSE70 cells; conc 100, 72 h
  cell viability relative to control: 115.736 and 126.65 and 80.7614
KYSE70 cells; conc 300, 72 h
  cell viability relative to control: 86.0914 and 84.7716
KYSE70 cells; conc 1000, 72 h
  cell viability relative to control: 63.3503 and 88.731 and 70.4569
NRF2 protein
  accumulation of NRF2 protein: no obvious accumulation
DCN1 [2]
  times less potent than DI-1548 in binding to DCN1: > 1000 times
DCN1 [2]; Concentration (nM) 0.169351, duplicates
  FP signal of the competitive binding curve: 48.4 and 48
DCN1 [2]; Concentration (nM) 0.508053, duplicates
  FP signal of the competitive binding curve: 47 and 44.7
DCN1 [2]; Concentration (nM) 1.52416, duplicates
  FP signal of the competitive binding curve: 42.8 and 45.5
DCN1 [2]; Concentration (nM) 4.57247, duplicates
  FP signal of the competitive binding curve: 46.4 and 45.6
DCN1 [2]; Concentration (nM) 13.7174, duplicates
  FP signal of the competitive binding curve: 45.7
DCN1 [2]; Concentration (nM) 41.1523, duplicates
  FP signal of the competitive binding curve: 43.9 and 44.9
DCN1 [2]; Concentration (nM) 123.457, duplicates
  FP signal of the competitive binding curve: 43.5 and 44.2
DCN1 [2]; Concentration (nM) 370.37, duplicates
  FP signal of the competitive binding curve: 42.9 and 41.1
DCN1 [2]; Concentration (nM) 1111.11, duplicates
  FP signal of the competitive binding curve: 36.2 and 35.7
DCN1 [2]; Concentration (nM) 3333.33, duplicates
  FP signal of the competitive binding curve: 28.3 and 29.7
DCN1 [2]; Concentration (nM) 10000, duplicates
  FP signal of the competitive binding curve: 20.5 and 22.6
DCN1 [2]; DCN1 50 nM, probe 5 nM, 30 min
  IC50: 2880 nM
DCN1 [3]
  covalent complex formation with DCN1: fails to form any detectable complex
[4]; conc 10, 72 h
  viability at 72 h: 93.6%
[4]; conc 30, 72 h
  viability at 72 h: 108%
[4]; conc 100, 72 h
  viability at 72 h: 104%
[4]; conc 300, 72 h
  viability at 72 h: 104%
MDA-MB-231 cells; Homo sapiens, MDA-MB-231, 72 h, cell line assigned from panel order, read-out: EC50, cell growth inhibition
  EC50: > 1000 nM
MDA-MB-231 cells; conc 10, 72 h
  cell viability relative to control: 111.264 and 113.448
MDA-MB-231 cells; conc 30, 72 h
  cell viability relative to control: 102.295 and 109.77
MDA-MB-231 cells; conc 100, 72 h
  cell viability relative to control: 112.459 and 97.8161
MDA-MB-231 cells; conc 300, 72 h
  cell viability relative to control: 97.7869 and 103.793
MDA-MB-231 cells; conc 1000, 72 h
  cell viability relative to control: 105.329 and 127.049 and 101.954
[5]; conc 3, 72 h
  viability at 72 h: 96.9%
[5]; conc 10, 72 h
  viability at 72 h: 107%
[5]; conc 100, 72 h
  viability at 72 h: 87.8%
[5]; conc 1000, 72 h
  viability at 72 h: 79.7%
HCT116 cells; Homo sapiens, HCT-116, 72 h, cell line assigned from panel order, read-out: EC50, cell growth inhibition
  EC50: > 1000 nM
HCT116 cells; conc 3, 72 h
  cell viability relative to control: 101.869 and 103.551
HCT116 cells; conc 10, 72 h
  cell viability relative to control: 94.2056 and 90
HCT116 cells; conc 30, 72 h
  cell viability relative to control: 80.7477 and 101.215 and 108.939
HCT116 cells; conc 100, 72 h
  cell viability relative to control: 96.6355 and 107.727
HCT116 cells; conc 300, 72 h
  cell viability relative to control: 79.5327 and 97.5701 and 109.546
HCT116 cells; conc 1000, 72 h
  cell viability relative to control: 96.8224 and 90.3738
U2OS cells; conc 10, 72 h
  cell viability relative to control: 109.342 and 93.2895 and 98.1579
U2OS cells; conc 30, 72 h
  cell viability relative to control: 118.158 and 95.5263 and 92.6316
U2OS cells; conc 100, 72 h
  cell viability relative to control: 108.684 and 93.421 and 101.974
U2OS cells; conc 300, 72 h
  cell viability relative to control: 103.684 and 90.921 and 92.2368
U2OS cells; conc 1000, 72 h
  cell viability relative to control: 95.1316 and 97.1053 and 98.2895
[6]; conc 10, 72 h
  viability at 72 h: 90.3%
[6]; conc 1000, 72 h
  viability at 72 h: 87.9%
Neddylation of cullin 3
  times less potent than DI-1548 and DI-1859, respectively, on cullin 3 neddylation: > 300 times
Neddylation of cullin 3; 100–300 nM
  effect on the neddylation of cullin 3: no significant effect

## C=CC(=O)NC[C@@H](NC(=O)[C@H](Cc1nc2ccc(C(C)C)cc2s1)NC(=O)CC)C1CCCCC1 [compound 3]
Solubility
  solubility: poor solubility
DCN1 [7]
  covalent complex formation / reaction kinetics with DCN1 protein (in words): slow reaction kinetics
DCN1 [7]; 10 min incubation, 1.2-fold excess inhibitor
  Percentage of the formation of covalent complex with DCN1 protein: 0%
DCN1 [7]; 720 min (12 h) incubation
  Percentage of the formation of covalent complex with DCN1 protein: 40%
